We go through 12 compounds from ChEMBL document CHEMBL1130940, “Combinatorial chemistry: from peptides and peptidomimetics to small organic and heterocyclic compounds” (Bioorg Med Chem Lett, 1998).

Chain of Sigma non-opioid intracellular receptor 1 (Q99720 whole entry): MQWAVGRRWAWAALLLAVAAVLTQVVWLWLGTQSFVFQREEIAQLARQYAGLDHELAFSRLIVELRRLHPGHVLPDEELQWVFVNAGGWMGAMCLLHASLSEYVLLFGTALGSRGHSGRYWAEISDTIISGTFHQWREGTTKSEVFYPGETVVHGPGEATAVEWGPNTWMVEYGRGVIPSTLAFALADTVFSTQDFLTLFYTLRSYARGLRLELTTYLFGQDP

The assay concerns the target Sigma non-opioid intracellular receptor 1 (Homo sapiens, UniProt Q99720). The assay can be described thus: Binding affinity for [3H]- pentazocine at sigma opioid receptor.
As usually defined, the Ki is the dissociation constant of the complex between target and ligand, obtained from inhibition or displacement. Compound `CCC[C@H](C(=O)NCc1ccccc1)N1C(=O)[C@@H](CCCN)N(Cc2ccccc2)C1=O` showed an inhibition constant Ki of 0.435 µM.

`CC[C@H](C)[C@H](C(=O)NCc1ccccc1)N1C(=O)[C@@H](CCCN)N(Cc2ccccc2)C1=O` yielded a Ki of 0.333 µM.

As for `NCCCCC[C@@H]1C(=O)N([C@H](CC2CCCCC2)C(N)=O)C(=O)N1Cc1ccccc1`, the affinity, expressed as Ki, was 3.63 µM.

`CCC[C@H](C(=O)NCc1ccccc1)N1C(=O)[C@@H](CCCCCN)N(Cc2ccccc2)C1=O` came in with a Ki of 2.42 µM.

In the case of `CC[C@@H](C)[C@H](C(=O)NCc1ccccc1)N1C(=O)[C@@H](CCCCN)N(Cc2ccccc2)C1=O`, the inhibition constant (Ki) worked out at 0.125 µM.

In turn, `CC[C@H](C)[C@@H](C(=O)NCc1ccccc1)N1C(=O)[C@@H](CCCCN)N(Cc2ccccc2)C1=O` yielded a Ki of 0.062 µM.

The compound `NCCC[C@H]1C(=O)N([C@H](CC2CCCCC2)C(N)=O)C(=O)N1Cc1ccccc1` yielded a Ki of 0.406 µM.

On to `CCC[C@H](C(=O)NCc1ccccc1)N1C(=O)[C@H](CCCCN)N(Cc2ccccc2)C1=O`, for which the Ki amounted to 0.064 µM.

On to `CCC[C@H](C(=O)NCc1ccccc1)N1C(=O)[C@@H](CCCCN)N(Cc2ccccc2)C1=O`, for which the affinity, expressed as Ki, was 0.08 µM.

Compound `CC[C@H](C)[C@H](C(=O)NCc1ccccc1)N1C(=O)[C@@H](CCCCCN)N(Cc2ccccc2)C1=O` yielded a Ki of 4.61 µM.

`NCCCC[C@@H]1C(=O)N([C@H](CC2CCCCC2)C(N)=O)C(=O)N1Cc1ccccc1` came in with a Ki of 0.189 µM.

With `NCCCC[C@@H]1C(=O)N([C@@H](CC2CCCCC2)C(N)=O)C(=O)N1Cc1ccccc1`, the inhibition constant Ki turned out to be 0.254 µM.
